Source: patent publication EP0243717A1 (priority 1986, dated 1987)
Values after ≈ are worked out from the molar mass of the structure shown. Values joined by “and” are separate entries in the source; they are usually repeats but may differ in a detail not shown here. Equal values may be shown once. Read-outs that look alike come from different tables or passages of the source.

How the values were obtained:
T. hyo = assay: Example 7: induced swine dysentery trial, drug in feed; format: in vivo, pigs; conditions: for No. Pig Days with General Appearance Score of: 1 / No. Pig Days with Hydration Score of: 1: 1 = Normal; for No. Pig Days with General Appearance Score of: 2: 2 = Depressed; for No. Pig Days with General Appearance Score of: 3: 3 = Moribund; for No. Pig Days with General Appearance Score of: 4: 4 = Dead; for No. Pig Days with Hydration Score of: 2: 2 = mild; for No. Pig Days with Hydration Score of: 3: 3 = moderate; for No. Pig Days with Hydration Score of: 4: 4 = severe
Description: The test is conducted using 40 crossbred pigs approximately 6 weeks of age, weighing 12.8 kg at receipt. Pigs are assigned to one of the treatments outlined in the Table below, stratified by body weight and sex, and randomly assigned to pens within a randomized block design. Sexes intermixed within pens and proportioned among treatment groups. Treatments groups are randomly assigned to pens within experimental blocks to alleviate location variables (see Table 9). Each treatment group consists of two replicate pens with five pigs per pen.
All pigs are adjusted to the test facility for four days prior to their challenge with 100 ml of T. hvodvsenteriae (T. hvo) broth culture. Respective treatment diets are provided 1 hr postchallenge and continued ad libitum for three weeks followed by a two week nonmedicated period. Clinical signs are noted and recorded for each pig each day postchallenge.
Pigs are challenged on day 5 and then provided respective treatment diets immediately postchallenge for a 21-day period followed by a 14-day nonmedication period.
Pigs are challenged on day 5 and then provided respective treatment diets immediately postchallenge for a 21-day period followed by a 14-day nonmedicated period.

[1] = tested on: Clostridium perfringens KB 129 (ATCC 3624); assay: microbe, parasite or virus in culture; format: cell-based
[2] = tested on: Bcteroides fragilis KB 169 (ATCC 23745); format: cell-based; conditions: Medium B
Text: (§1) For reference, the minimum growth inhibition concentrations (MIC) to various bacteria of above five drugs and Lankacidin C are shown in Table 3.

[3] = tested on: Peptococcus variabilis KB 235 (ATCC 14955); format: cell-based; conditions: Medium B
Text: as §1

[4] = tested on: piricularia oryzae KF 180; assay: microbe, parasite or virus in culture; format: cell-based
Xanthomonas oryzae KB 88 = assay: microbe, parasite or virus in culture; format: cell-based
Treponema hyodysenteriae [5] = format: in vivo, pigs
Treponema hyodysenteriae [6] = format: in vivo, pigs; remark: listed apart in the source
[7] = Treatment C, 50 g/ton Carbadox, Total
[8] = Treatment C, 50 g/ton Carbadox, per pen (2, 7)
[9] = Clostridium perfringens, ATCC3624
[10] = Group III, 5 additional healthy pigs penned with the treated pigs
[11] = Group III, second line of 5 pigs (additional healthy pigs)
[12] = […], 0 normal, 1 diarrhea, 2 feces cruentae
[13] = Treatment A, 20 g/ton hygromycin A, Total
[14] = Treatment A, 20 g/ton hygromycin A, per pen (1, 4)
[15] = Treatment B, 10 g/ton hygromycin A, Total
[16] = Treatment B, 10 g/ton hygromycin A, per pen (5, 8)
[17] = Treatment C, 50 g/ton hygromycin A, Total
[18] = Treatment C, 50 g/ton hygromycin A, per pen (2, 7)

COC(=O)N/N=C/c1c[n+]([O-])c2ccccc2[n+]1[O-] [Carbadox, carbadox, reference compound] was tested, and the “No. Pig Days with General Appearance Score of: 1” value (T. hyo; [7]) was 349 pig days, the “No. Pig Days with General Appearance Score of: 2” value (T. hyo; [7]) was 1 pig days and the “No. Pig Days with General Appearance Score of: 3” value (T. hyo; [7]) was 0 pig days. For the same molecule, the “No. Pig Days with General Appearance Score of: 4” value (T. hyo; [7]) was 0 pig days, the “No. Pig Days with General Appearance Score of: 1” value (T. hyo; [8]) was 174 pig days and 175 pig days and the “No. Pig Days with General Appearance Score of: 3” value (T. hyo; [8]) was 0 pig days. For the same molecule, the “No. Pig Days with General Appearance Score of: 4” value (T. hyo; [8]) was 0 pig days.
With C=C[C@]1(C)C[C@@H](OC(=O)CSCCN(CC)CC)[C@]2(C)[C@H](C)CC[C@]3(CCC(=O)[C@H]32)[C@@H](C)[C@@H]1O [Dynamutilin, tiamulin] the MIC [1, 9] was 0.78 µg/mL (≈ 1.58 µM), the MIC ([2]; read-out: MIC) was < 0.2 µg/mL and the MIC ([3]; read-out: MIC) was 0.4 µg/mL (≈ 0.81 µM). For the same molecule, the MIC [4] was > 100 µg/mL and the MIC (Xanthomonas oryzae KB 88; Xanthomonas oryzae, KB88) was < 3.12 µg/mL.
With CC(=O)[C@H]1O[C@@H](Oc2ccc(/C=C(\C)C(=O)N[C@@H]3[C@H](O)[C@@H](O)[C@H]4OCO[C@H]4[C@@H]3O)cc2O)[C@@H](O)[C@@H]1O [Hygromycin A, hygromycin A] the MIC ([1]; Medium B) was 6.25 µg/mL (≈ 12.2 µM), the MIC [2] was 50 µg/mL (≈ 97.8 µM) and the “Average diarrhea index During observation” value (Treponema hyodysenteriae [5]; [10]) was 0. For the same molecule, the “Change in morbidity ( %) Commencement of observation” value (Treponema hyodysenteriae [5]; [10]) was 0%, the “Change in morbidity ( %) During observation” value (Treponema hyodysenteriae [5]; [10]) was 0% and the “Mortality (%)” value (Treponema hyodysenteriae [5]; [10]) was 0%. For the same molecule, the “Mortality (%)” value (Treponema hyodysenteriae [5]; Group III, 5 infected treated pigs) was 0%, the “Pathogen Detection Rate (%) Commencement of observation” value (Treponema hyodysenteriae [5]; [11]) was 0% and the “Pathogen Detection Rate (%) During observation” value (Treponema hyodysenteriae [5]; [11]) was 0%. The “attack of the disease in infected pigs or healthy pigs” value (Treponema hyodysenteriae [5]; Group III, during the observation period) was “no attack of the disease is observed”, the “swine dysentery symptoms of infected pigs” value (Treponema hyodysenteriae [5]; Group III, during the therapeutic period and at the starting time of observation) was “no swine dysentery symptoms” and the “Average diarrhea index pre-medication” value (Treponema hyodysenteriae [5]; [12]) was 0. The “Average diarrhea index During medication” value (Treponema hyodysenteriae [5]; pig, in vivo) was 0, the “Average diarrhea index During observation” value (Treponema hyodysenteriae [5]; pig, in vivo) was 0 and the “Change in morbidity ( %) Commencement of observation” value (Treponema hyodysenteriae [5]; pig, in vivo) was 0%. For the same molecule, the “Change in morbidity ( %) During medication” value (Treponema hyodysenteriae [5]; pig, in vivo) was 0/5, the “Change in morbidity ( %) During observation” value (Treponema hyodysenteriae [5]; pig, in vivo) was 0% and the “Pathogen Detection Rate (%) Commencement of observation” value (Treponema hyodysenteriae [5]; pig, in vivo) was 0%. The “Pathogen Detection Rate (%) During medication” value (Treponema hyodysenteriae [5]; pig, in vivo) was 0%, the “Pathogen Detection Rate (%) During observation” value (Treponema hyodysenteriae [5]; pig, in vivo) was 0% and the “Pathogen Detection Rate (%) pre-infection” value (Treponema hyodysenteriae [5]; pig, in vivo) was 0%. For the same molecule, the MIC [4] was >100 µg/mL, the “No. Pig Days with General Appearance Score of: 1” value (T. hyo; [13]) was 349 pig days and the “No. Pig Days with General Appearance Score of: 2” value (T. hyo; [13]) was 1 pig days. For the same molecule, the “No. Pig Days with Hydration Score of: 2” value (T. hyo; [13]) was 0 pig days, the “No. Pig Days with General Appearance Score of: 3” value (T. hyo; [13]) was 0 pig days and the “No. Pig Days with Hydration Score of: 3” value (T. hyo; [13]) was 0 pig days. The “No. Pig Days with General Appearance Score of: 4” value (T. hyo; [13]) was 0 pig days, the “No. Pig Days with Hydration Score of: 4” value (T. hyo; [13]) was 0 pig days and the “No. Pig Days with General Appearance Score of: 1” value (T. hyo; [14]) was 174 pig days and 175 pig days. For the same molecule, the “No. Pig Days with Hydration Score of: 2” value (T. hyo; [14]) was 0 pig days, the “No. Pig Days with General Appearance Score of: 3” value (T. hyo; [14]) was 0 pig days and the “No. Pig Days with Hydration Score of: 3” value (T. hyo; [14]) was 0 pig days. For the same molecule, the “No. Pig Days with General Appearance Score of: 4” value (T. hyo; [14]) was 0 pig days, the “No. Pig Days with Hydration Score of: 4” value (T. hyo; [14]) was 0 pig days and the “No. Pig Days with Hydration Score of: 1” value (T. hyo; Treatment A, 20 g/ton, Total) was 350 pig days. For the same molecule, the “No. Pig Days with Hydration Score of: 1” value (T. hyo; Treatment A, 20 g/ton, per pen (1, 4)) was 175 pig days, the “No. Pig Days with General Appearance Score of: 1” value (T. hyo; [15]) was 349 pig days and the “No. Pig Days with General Appearance Score of: 2” value (T. hyo; [15]) was 1 pig days. The “No. Pig Days with Hydration Score of: 2” value (T. hyo; [15]) was 4 pig days, the “No. Pig Days with General Appearance Score of: 3” value (T. hyo; [15]) was 0 pig days and the “No. Pig Days with Hydration Score of: 3” value (T. hyo; [15]) was 0 pig days. For the same molecule, the “No. Pig Days with General Appearance Score of: 4” value (T. hyo; [15]) was 0 pig days, the “No. Pig Days with Hydration Score of: 4” value (T. hyo; [15]) was 0 pig days and the “No. Pig Days with General Appearance Score of: 1” value (T. hyo; [16]) was 175 pig days and 174 pig days. The “No. Pig Days with Hydration Score of: 2” value (T. hyo; [16]) was 2 pig days, the “No. Pig Days with General Appearance Score of: 3” value (T. hyo; [16]) was 0 pig days and the “No. Pig Days with Hydration Score of: 3” value (T. hyo; [16]) was 0 pig days. The “No. Pig Days with General Appearance Score of: 4” value (T. hyo; [16]) was 0 pig days, the “No. Pig Days with Hydration Score of: 4” value (T. hyo; [16]) was 0 pig days and the “No. Pig Days with Hydration Score of: 1” value (T. hyo; Treatment B, 10 g/ton, Total) was 346 pig days. For the same molecule, the “No. Pig Days with Hydration Score of: 1” value (T. hyo; Treatment B, 10 g/ton, per pen (5, 8)) was 173 pig days, the “No. Pig Days with Hydration Score of: 2” value (T. hyo; [17]) was 3 pig days and the “No. Pig Days with Hydration Score of: 3” value (T. hyo; [17]) was 0 pig days. For the same molecule, the “No. Pig Days with Hydration Score of: 4” value (T. hyo; [17]) was 0 pig days, the “No. Pig Days with Hydration Score of: 2” value (T. hyo; [18]) was 2 pig days and 1 pig days and the “No. Pig Days with Hydration Score of: 3” value (T. hyo; [18]) was 0 pig days. For the same molecule, the “No. Pig Days with Hydration Score of: 4” value (T. hyo; [18]) was 0 pig days, the “No. Pig Days with Hydration Score of: 1” value (T. hyo; Treatment C, printed 50 g/ton, Total) was 347 pig days and the “No. Pig Days with Hydration Score of: 1” value (T. hyo; Treatment C, printed 50 g/ton, per pen (2, 7), row) was 173 pig days and 174 pig days. The MIC (Xanthomonas oryzae KB 88; Medium E) was 50 µg/mL (≈ 97.8 µM), the “Pathogen Detection Rate (%) During medication days 31 to 120” value (Treponema hyodysenteriae [6]; Group III, hygromycin A 0.5mg/liter drinking water, rectal swabs) was 0/12 and the Mortality (Treponema hyodysenteriae [6]; Group III: infected, hygromycin A 0.5mg/liter drinking water) was 0. For the same molecule, the “Pathogen Detection Rate (%) Withdrawal days 31 to 120” value (Treponema hyodysenteriae [6]; Group III, after end of medication, rectal swabs) was 0/12, the “Pathogen Detection Rate (%) Post infecting days 1 to 3 Before medication” value (Treponema hyodysenteriae [6]; Group III, rectal swabs) was 10/12 and the “Pathogen Detection Rate (%) Prein-fecting” value (Treponema hyodysenteriae [6]; Group III, rectal swabs) was 0%. The “Average diarrhea index During medication” value (Treponema hyodysenteriae [6]; [12]) was 0.22, the “Average diarrhea index Pre-medication” value (Treponema hyodysenteriae [6]; [12]) was 0 and the “Gross pathological examination of the colon” value (Treponema hyodysenteriae [6]; […], necropsy after the experiment) was “normal”. The “Change in morbidity (%) Third day” value (Treponema hyodysenteriae [6]; pig, in vivo) was 0% and the “Change in morbidity (%) Thirtieth day” value (Treponema hyodysenteriae [6]; pig, in vivo) was 0%.
CC(=O)C(=O)N[C@@H]1/C=C(C)/C=C/[C@@H](O)C/C=C(C)/C=C/[C@@H](O)C[C@H]2OC(=O)[C@]1(C)C(=O)[C@@H]2C [Lankacidin C] was tested, and the MIC ([1]; Medium B) was 3.12 µg/mL (≈ 6.79 µM), the MIC [2] was 0.78 µg/mL (≈ 1.7 µM) and the MIC [3] was 0.4 µg/mL (≈ 0.87 µM). The MIC [4] was >100 µg/mL and the MIC (Xanthomonas oryzae KB 88; Medium E) was < 3.12 µg/mL.
For CCC[C@@H]1C[C@@H](C(=O)N[C@@H]([C@H]2O[C@H](SC)[C@H](O)[C@@H](O)[C@H]2O)[C@@H](C)O)N(C)C1 [Lincomycin], the MIC [1, 9] was 0.4 µg/mL (≈ 0.984 µM), the MIC ([2]; read-out: MIC) was 0.4 µg/mL (≈ 0.984 µM) and the MIC ([3]; read-out: MIC) was 0.78 µg/mL (≈ 1.92 µM). For the same molecule, the MIC [4] was > 100 µg/mL and the MIC (Xanthomonas oryzae KB 88; Xanthomonas oryzae, KB88) was > 100 µg/mL.
